According to publication PMC12470154, “In Vitro Evaluation of Antimicrobial Amyloidogenic Peptides for the Treatment of Early and Mature Bacterial Biofilms” (International Journal of Molecular Sciences, 2025):

Columns and labels:
[1] = tested on: E. coli (MG1655 strain); assay: Mature biofilms, MTT assay; assay type: cell-based, Escherichia coli; set-up: key: ↓: Decrease in the parameter (optical density) compared to the negative control; −: No decrease in the optical density; ↑: Reverse effect (increase in the optical density compared to the control); conditions: mature biofilm: peptide added after 24 h, further 24 h; 0.01-10 mg/mL
Experimental: (§1) After 24 h of incubation, the medium was removed. To assess the total biofilm biomass, the wells were rinsed with sterile PBS solution and stained with 0.1% crystal violet. The dye bound to the surface was then removed using 95% ethanol. To assess the presence of metabolically active cells, 0.3% MTT (PanEco Ltd., Moscow, Russia) solution was added to each well, and the plates were incubated at 37 °C for 2 h. After incubation, the MTT solution was removed, 150 µL of DMSO (Chimmed, Moscow, Russia) and 25 µL of glycine buffer were added to each well, and the plates were left at room temperature for 15 min. The resulting solutions were transferred to a flat-bottom 96-well plate, and optical density was measured at 595 nm.
(§2) A stationary-phase culture of the tested strain was diluted 100-fold in fresh medium (200 µL per well) and added to the wells of a 96-well round-bottom plate. […] After another 24 h, the medium was removed and the wells were rinsed with sterile PBS to eliminate planktonic cells. The procedures for assessing total biofilm biomass and cell metabolic activity using crystal violet and MTT assays were performed in the same manner as described above for early-stage biofilm experiments.

[2] = tested on: P. aeruginosa (2943 strain); assay: Mature biofilms, MTT assay; assay type: cell-based, Pseudomonas aeruginosa; set-up: key: ↓: Decrease in the parameter (optical density) compared to the negative control; −: No decrease in the parameter; ↑: Reverse effect (increase in the optical density compared to the control); conditions: mature biofilm: peptide added after 24 h, further 24 h; 0.01-10 mg/mL
Experimental: as §1, §2

[3] = tested on: MRSA (SA 180-F strain); assay: Early biofilm formation, MTT assay; assay type: cell-based, methicillin-resistant Staphylococcus aureus; set-up: key: ↓: Decrease in the parameter (optical density) compared to the negative control; −: No decrease in the parameter; ↑: Reverse effect (increase in the optical density compared to the control); conditions: 24 h, 0.3% MTT 2 h 37 °C, OD 595 nm
Experimental: as §1

[4] = tested on: P. aeruginosa (2943 strain); assay: Mature biofilms, crystal violet staining; assay type: cell-based, Pseudomonas aeruginosa; set-up: key: ↓: Decrease in the parameter (optical density) compared to the negative control; −: No decrease in the parameter; ↑: Reverse effect (increase in the optical density compared to the control); conditions: mature biofilm: peptide added after 24 h, further 24 h; 0.01-10 mg/mL
Experimental: as §1, §2

[5] = tested on: MRSA (SA 180-F strain); assay: Mature biofilms, crystal violet staining; assay type: cell-based, methicillin-resistant Staphylococcus aureus; set-up: key: ↓: Decrease in the parameter (optical density) compared to the negative control; −: No decrease in the parameter; ↑: Reverse effect (increase in the optical density compared to the control); conditions: mature biofilm: peptide added after 24 h, further 24 h, 0.01-10 mg/mL
Experimental: as §1, §2

[6] = tested on: S. aureus (129B strain); assay: Early biofilm formation, MTT assay; assay type: cell-based, Staphylococcus aureus; set-up: key: ↓: Decrease in the parameter (optical density) compared to the negative control; −: No decrease in the parameter; ↑: Reverse effect (increase in the optical density compared to the control); conditions: 24 h, 0.3% MTT 2 h 37 °C, OD 595 nm
Experimental: as §1

[7] = tested on: P. aeruginosa (2943 strain); assay: Antibacterial activity in liquid medium (optical density); assay type: cell-based, Pseudomonas aeruginosa; set-up: key to change of optical density vs negative control: ↓: Decrease in the parameter (optical density) compared to the negative control; −: No decrease in the parameter; ↑: Reverse effect (increase in the optical density compared to the control); conditions: 24 h, 37 °C; for change of optical density vs negative control: OD 595 nm
Experimental: To evaluate the antibacterial activity of peptides in liquid culture, a stationary-phase culture of the tested bacterial strain was diluted 100-fold in fresh medium containing peptides or gentamicin (positive control) at the specified concentrations. A total volume of 200 µL was added to each well of a 96-well round-bottom microtiter plate. After 24 h of incubation at 37 °C, the samples were transferred to a flat-bottom 96-well microtiter plate, and the optical density was measured at 595 nm. Separately, the optical density of medium containing peptides but no bacteria was measured. These values were used as baseline (zero) readings for subsequent data analysis.

[8] = tested on: S. aureus (129B strain); assay: Mature biofilms, crystal violet staining; assay type: cell-based, Staphylococcus aureus; set-up: key: ↓: Decrease in the parameter (optical density) compared to the negative control; −: No decrease in the parameter; ↑: Reverse effect (increase in the optical density compared to the control); conditions: mature biofilm: peptide added after 24 h, further 24 h; 0.01-10 mg/mL
Experimental: as §1, §2

[9] = tested on: S. aureus (129B strain); assay: Mature biofilms, MTT assay; assay type: cell-based, Staphylococcus aureus; set-up: key: ↓: Decrease in the parameter (optical density) compared to the negative control; −: No decrease in the optical density; ↑: Reverse effect (increase in the optical density compared to the control); conditions: mature biofilm: peptide added after 24 h, further 24 h; 0.01-10 mg/mL
Experimental: as §1, §2

[10] = tested on: E. coli (MG1655 strain); assay: Antibacterial activity on 0.7% agar (inhibition zone); assay type: cell-based, Escherichia coli; set-up: key: +: The presence of a bacterial growth inhibition zone; −: The absence of a bacterial growth inhibition zone; conditions: drop on 0.7% agar, 24 h
Experimental: Drops of the samples were applied to the surface of solidified 0.7% agar at the concentrations indicated in Table 2 and Supplementary S2 (Figures S1–S4). After 24 h of incubation, the results were evaluated based on the presence or absence (+/−) of inhibition zones.
Once the agar solidified, drops of peptide samples at the concentrations 1, 0.1, 0.01, and 0.001 mg/mL were applied to the agar surface.

[11] = tested on: E. coli (MG1655 strain); assay: Mature biofilms, crystal violet staining; assay type: cell-based, Escherichia coli; set-up: key: ↓: Decrease in the parameter (optical density) compared to the negative control; −: No decrease in the parameter; ↑: Reverse effect (increase in the optical density compared to the control); conditions: mature biofilm: peptide added after 24 h, further 24 h; 0.01-10 mg/mL
Experimental: as §1, §2

| Sequence | change of optical density after MTT assay vs negative control [1] | change of optical density after MTT assay vs negative control [2] | change of optical density after MTT assay vs negative control [3] | change of optical density after crystal violet staining vs negative control [4] | change of optical density after crystal violet staining vs negative control [5] | change of optical density after MTT assay vs negative control [6] | change of optical density vs negative control [7] | change of optical density after crystal violet staining vs negative control [8] | change of optical density after MTT assay vs negative control [9] | concentration given with ↓ (decrease in optical density) [7] [mg/mL] | bacterial growth inhibition zone ([10]; 0.001 mg/mL) | bacterial growth inhibition zone ([10]; 0.01 mg/mL) | bacterial growth inhibition zone ([10]; 0.1 mg/mL) | bacterial growth inhibition zone ([10]; 1 mg/mL) | change of optical density after crystal violet staining vs negative control [11] | change of optical density after crystal violet staining vs negative control ([5]; listed as V31K^S) | change of optical density vs negative control ([7]; listed as V31K^S) | bacterial growth inhibition zone ([10]; 1 mg/mL, listed as V31K^S) |
| --- | --- | --- | --- | --- | --- | --- | --- | --- | --- | --- | --- | --- | --- | --- | --- | --- | --- | --- |
| ITDFGIFIGLGGGGSRQIKIWFQNRRMKWKK [I31K^P] | − | ↑ | ↑ | ↑ | ↑ | ↑ | ↑ | ↑ |  |  |  |  |  |  |  |  |  |  |
| RKKRRQRRRGGGGITDFGIFIGL [R23L^P] | − | ↑ | ↑ | ↑ |  | ↑ | ↓ (10 mg/mL) | ↑ | − | 10 | − | − | − | + | ↑ |  |  |  |
| RKKRRQRRRGGGGVTDFGVFVEI [R23I^T, TAT cell-penetrating peptide linked via glycine linker to amyloidogenic fragment of S1 ribosomal protein of T. thermophilus] |  |  | ↑ |  |  | ↑ | ↓ (10 mg/mL) |  | − | 10 | − | − | − | − |  |  |  |  |
| RKKRRQRRRGGGGVVVHINGGKFGGGGSRQIKIWFQNRRMKWKK [R44K^S] |  | ↑ | ↑ | ↑ | ↑ | ↑ | ↓ (10 mg/mL) | ↑ | − | 10 | − | − | − | − | ↑ |  |  |  |
| VTDFGVFVEIGGGGSRQIKIWFQNRRMKWKK [V31K^T, amyloidogenic fragment of S1 of T. thermophilus linked via glycine-rich linker to antennapedia peptide] | − | ↑ | ↑ | ↑ |  | ↑ | − | ↑ | − | 10 | − | − | − | − | ↑ | ↑ | ↓ (10 mg/mL) | + |
